In US4535081A, “Antiallergic and antiulcer 1-oxo-1H-thiazolo[3,2-a]pyrimidine-2-carboxamides and intermediates therefor” (Pfizer Inc., priority 1983, dated 1985):
Where two headings read alike, the source gives them in different places.

Legend:
[1] = test system: IgE (reaginic antiserum) PCA reaction; experiment: Oral activity in PCA test, IgE; format: in vivo, rat; conditions: Rattus norvegicus, IgE, oral
Procedure: (§1) The antiallergy property of the compounds of this invention is evaluated by the passive cutaneous anaphylaxis (PCA) test (Ovary, J. Immun., 81, 355, 1958). In the PCA test, normal animals are injected intradermally (i.d.) with antibodies contained in serum obtained from actively sensitized animals. The animals are then challenged intravenously with antigen mixed with a dye such as Evans' Blue. The increased capillary permeability caused by the antigen-antibody reaction causes the dye to leak from the site of the antibody injection. The test animals are then asphyxiated and the intensity of the reaction determined by measuring the diameter and intensity of the blue coloration on the inner surface of the animals' skin.
The PCA test is a measure of the anti-allergic (especially anti-asthmatic) activity of a compound. Compounds which inhibit a positive PCA test induced by the rat immunochemical counterpart of human immunoglobulin E (IgE), or reagin, are considered to have anti-allergic activity (C. Mota, Ann. N.Y. Acad. Sci., 103, 264 1963). (Reagin is primarily immunoglobulin E [IgE] and is the principal immunoglobulin responsible for allergic asthma, anaphylaxis, hay fever, food sensitivities and certain manifestations of drug sensitivities, although recent evidence ascribes to the IgG class of antibodies a significant role in the mediation of allergic diseases). Such compounds when administered to a sensitized subject, human or animal, prior to the time when the subject comes into contact with antigens or substances to which it is allergic, will prevent the allergic reaction which would otherwise occur. They, therefore, provide a method for the prophylactic treatment of allergy or anaphylactic reactions of a reagin mediated nature.
To put it another way, such compounds block the release of mediators resulting from the antigen-antibody (allergic) reaction as illustrated in the PCA test using rat homocytotropic antibody--a known correlate of human reaginic antibody. Inhibition of reaginic antigen-antibody reactions in rats, the test animal of the PCA test, is regarded as representative of inhibition of human reaginic antigen-antibody reactions which occur during allergic episodes.
The ability of agents to interfere with PCA reactions is measured in male Charles River Wistar rats, 170-210 g. Reaginic antiserum, rich in IgE antibodies, is prepared according to Petillo et al., Int. Arch. Allergy, 44, 309 (1973). Hyperimmune antiserum rich in IgG antibodies to hen egg albumin is prepared according to Orange et al., J. Exptl. Med., 127, 767 (1968). Forty-eight hours prior to antigen challenge, the reaginic antiserum is injected intradermally (i.d.) into the shaved skin of a normal rat's back; 5 hours before challenge the hyperimmune antisera is similarly injected. At a third site 60 mcg. histamine dihydrochloride and 0.5 mcg. serotonin creatinine sulfate are injected i.d. just prior to antigen challenge as a check for antihistaminic, antiserotonin and unspecific types of blockage; the compounds of the instant invention or saline are then administered i.v. and immediately followed by the challenge of 5 mg. egg albumen and 2.5 mg. Evans' Blue dye in saline. In the case of oral administration Evans' Blue dye and egg albumin are given 5 minutes after administration of the drug. Thirty minutes later the animals are asphyxiated using chloroform and the skin of the back removed and reversed for observation. A score is assigned each injection site equal to the product of the diameter of the site in mm. and a grade of 0.1, 0.5, 1, 2, 3 or 4 proportional to intensity of dye coloration. The scores for a given injection site are summed for each group of five animals and compared to the saline treated controls. The difference is expressed as percent blockage due to the compound employed. […]

[2] = test system: IgG (hyperimmune antiserum) PCA reaction; experiment: Oral activity in PCA test, IgG; format: in vivo; conditions: Rattus norvegicus
Procedure: as §1
The ability of agents to interfere with PCA reactions is measured in male Charles River Wistar rats, 170-210 g. Reaginic antiserum, rich in IgE antibodies, is prepared according to Petillo et al., Int. Arch. Allergy, 44, 309 (1973). Hyperimmune antiserum rich in IgG antibodies to hen egg albumin is prepared according to Orange et al., J. Exptl. Med., 127, 767 (1968). Forty-eight hours prior to antigen challenge, the reaginic antiserum is injected intradermally (i.d.) into the shaved skin of a normal rat's back; 5 hours before challenge the hyperimmune antisera is similarly injected. At a third site 60 mcg. histamine dihydrochloride and 0.5 mcg. serotonin creatinine sulfate are injected i.d. just prior to antigen challenge as a check for antihistaminic, antiserotonin and unspecific types of blockage; the compounds of the instant invention or saline are then administered i.v. and immediately followed by the challenge of 5 mg. egg albumen and 2.5 mg. Evans' Blue dye in saline. In the case of oral administration Evans' Blue dye and egg albumin are given 5 minutes after administration of the drug. Thirty minutes later the animals are asphyxiated using chloroform and the skin of the back removed and reversed for observation. A score is assigned each injection site equal to the product of the diameter of the site in mm. and a grade of 0.1, 0.5, 1, 2, 3 or 4 proportional to intensity of dye coloration. The scores for a given injection site are summed for each group of five animals and compared to the saline treated controls. The difference is expressed as percent blockage due to the compound employed.
Compounds representative of those of the present invention are tested for antiallergy activity by the above-described procedure and the resulting activities are reported as the degree (%) of protection.

[3] = Table II acids, read-out: Oral Activity (% of Protection) of Acids in the PCA Test, IgE
[4] = Table II acids, read-out: Oral Activity (% of Protection) of Acids in the PCA Test, IgG
[5] = Table I amides, read-out: Oral Activity (% of Protection) in the PCA Test, IgE
[6] = Table I amides, read-out: Oral Activity (% of Protection) in the PCA Test, IgG

| SMILES | inhibition in vivo at 30 mg/kg [1, 3] | inhibition in vivo at 30 mg/kg [2, 4] | inhibition in vivo at 30 mg/kg [1, 5] | inhibition in vivo at 30 mg/kg [2, 6] | also measured |
| --- | --- | --- | --- | --- | --- |
| O=C(O)c1cnc2sc3c(n2c1=O)CCCCCC3 [Formula II: (CH2)6, 1-Oxo-1H-cyclooctenothiazolo[3,2-a]pyrimidine-2-carboxylic Acid] | 68% | 45% |  |  | inhibition in vivo at 10 mg/kg ([1]; 10 mg./kg., Table II acids, read-out: Oral Activity (% of Protection) of Acids in the PCA Test, IgE): 36%; inhibition in vivo at 10 mg/kg ([2]; 10 mg./kg., Table II acids, read-out: Oral Activity (% of Protection) of Acids in the PCA Test, IgG): 15% |
| O=C(Nc1nnn[nH]1)c1cnc2sc3c(n2c1=O)CCCCC3 [Formula I: (CH2)5, N-(5-Tetrazolyl)-1-oxo-1H cycloheptenothiazolo[3,2-a]pyrimidine-2-carboxamide] |  |  | 25% | 38% |  |
| CCc1sc2ncc(C(=O)O)c(=O)n2c1C [Formula II: R1=C2H5, R2=CH3, 1-Oxo-1H-6-ethyl-7-methylthiazolo[3,2-a]pyrimidine-2-carboxylic Acid] | 42% | 24% |  |  |  |
| CCC(C)c1csc2ncc(C(=O)O)c(=O)n12 (centres unmarked) [1-Oxo-1H-7-(2-butyl)thiazolo[3,2-a]pyrimidine-2-carboxylic Acid] | 1% | 8% |  |  |  |
| CCc1c(C)sc2ncc(C(=O)O)c(=O)n12 [Formula II: R1=CH3, R2=C2H5, 1-Oxo-1H-6-methyl-7-ethylthiazolo[3,2-a]pyrimidine-2-carboxylic Acid] | 0% | 0% |  |  |  |
| CC1CCc2c(sc3ncc(C(=O)O)c(=O)n23)C1 (centres unmarked) [Formula II: CH2CH(CH3)CH2CH2, 1-Oxo-1H-7-methylcyclohexenothiazolo[3,2-a]pyrimidine-2-carboxylic Acid] | 31% | 21% |  |  |  |
| CC(C)(C)c1csc2ncc(C(=O)Nc3nnn[nH]3)c(=O)n12 [Formula I: R1=H, R2=C(CH3)3, N-(5-Tetrazolyl)-1-oxo-1H-7-(2-methyl-2-propyl)thiazolo[3,2-a]pyrimidine-2-carboxamide] |  |  | 37% | 20% |  |
| CC1(C)CCc2c(sc3ncc(C(=O)O)c(=O)n23)C1 [Formula II: CH2C(CH3)2CH2CH2, 1-Oxo-1H-7,7-dimethylcyclohexenothiazolo[3,2-a]pyrimidine-2-carboxylic Acid] | 13% | 6% |  |  |  |
| CC(C)c1csc2ncc(C(=O)O)c(=O)n12 [Formula II: R1=H, R2=CH(CH3)2, 1-Oxo-1H-7-isopropylthiazolo[3,2-a]pyrimidine-2-carboxylic Acid] | 0% | 0% |  |  |  |
| O=C(Nc1nnn[nH]1)c1cnc2sc3c(n2c1=O)CCC3 [Formula I: (CH2)3, N-(5-Tetrazolyl)-1-oxo-1H-cyclopentenothiazolo[3,2-a]pyrimidine-2-carboxamide] |  |  |  |  | inhibition in vivo at 1 mg/kg ([1]; 1 mg./kg., read-out: Oral Activity (% of Protection) in the PCA Test, IgE): 46%; inhibition in vivo at 1 mg/kg ([2]; 1 mg./kg., read-out: Oral Activity (% of Protection) in the PCA Test, IgG): 43% |
| CCc1sc2ncc(C(=O)Nc3nnn[nH]3)c(=O)n2c1C [Formula I: R1=C2H5, R2=CH3, N-(5-Tetrazolyl)-1-oxo-1H-6-ethyl-7-methylthiazolo[3,2-a]pyrimidine-2-carboxamide] |  |  | 29% | 28% |  |
| CCc1csc2ncc(C(=O)Nc3nnn[nH]3)c(=O)n12 [Formula I: R1=H, R2=C2H5, N-(5-Tetrazolyl)-1-oxo-1H-7-ethylthiazolo[3,2-a]pyrimidine-2-carboxamide] |  |  | 70% | 44% |  |
| O=C(O)c1cnc2sc3c(n2c1=O)CCCCC3 [Formula II: (CH2)5, 1-Oxo-1H-cycloheptenothiazolo[3,2-a]pyrimidine-2-carboxylic Acid] | 37% | 44% |  |  |  |
| CC(C)(C)c1csc2ncc(C(=O)O)c(=O)n12 [Formula II: R1=H, R2=C(CH3)3, 1-Oxo-1H-7-(2-methyl-2-propyl)thiazolo[3,2-a]pyrimidine-2-carboxylic Acid] | 10% | 6% |  |  |  |
| CCc1c(C)sc2ncc(C(=O)Nc3nnn[nH]3)c(=O)n12 [Formula I: R1=CH3, R2=C2H5, N-(5-Tetrazolyl)-1-oxo-1H-6-methyl-7-ethylthiazolo[3,2-a]pyrimidine-2-carboxamide] |  |  | 75% | 57% |  |
| O=C(O)c1cnc2sccn2c1=O [Formula II: R1=H, R2=H] | 18% | 7% |  |  |  |
| O=C(O)c1cnc2sc3c(n2c1=O)CCC3 [Formula II: (CH2)3, 1-Oxo-1H-cyclopentenothiazolo[3,2-a]pyrimidine-2-carboxylic Acid] | 0% | 0% |  |  |  |
| CC(C)c1csc2ncc(C(=O)Nc3nnn[nH]3)c(=O)n12 [Formula I: R1=H, R2=CH(CH3)2, N-(5-Tetrazolyl)-1-oxo-1H-7-isopropylthiazolo[3,2-a]pyrimidine-2-carboxamide] |  |  | 72% | 53% |  |
| O=C(O)c1cnc2sc3c(n2c1=O)CCC(c1ccccc1)C3 (centres unmarked) [Formula II: CH2CH(C5H6)CH2CH2, 1-oxo-1H-7-phenylcyclohexenothiazolo[3,2-a]pyrimidine-2-carboxylic Acid] | 15% | 5% |  |  |  |
| CCc1csc2ncc(C(=O)O)c(=O)n12 [Formula II: R1=H, R2=C2H5, 1-Oxo-1H-7-ethylthiazolo[3,2-a]pyrimidine-2-carboxylic Acid] | 13% | 21% |  |  |  |
| O=C(Nc1nnn[nH]1)c1cnc2sccn2c1=O [Formula I: R1=H, R2=H] |  |  | 50% | 46% |  |
